Test results taken from ChEMBL document CHEMBL5604063, “ASAP - DENV-2 NS2B-NS3 protease fluorescence dose response” (2024).

Experiments:
Genome polyprotein [1] = biological target: T1, Genome polyprotein (dengue virus type 2, UniProt P29990); assay type: functional, Thailand/16681/1984
Genome polyprotein [2] = biological target: T1, Genome polyprotein; assay type: functional, Thailand/16681/1984; remark: listed apart in the source

T1 sequence (P29990 1346-1475 limits assumed): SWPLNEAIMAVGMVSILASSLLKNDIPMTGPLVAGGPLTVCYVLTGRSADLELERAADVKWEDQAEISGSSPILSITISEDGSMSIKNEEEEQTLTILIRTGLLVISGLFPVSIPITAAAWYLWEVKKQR
T1 sequence (P29990 1476-2093 limits assumed): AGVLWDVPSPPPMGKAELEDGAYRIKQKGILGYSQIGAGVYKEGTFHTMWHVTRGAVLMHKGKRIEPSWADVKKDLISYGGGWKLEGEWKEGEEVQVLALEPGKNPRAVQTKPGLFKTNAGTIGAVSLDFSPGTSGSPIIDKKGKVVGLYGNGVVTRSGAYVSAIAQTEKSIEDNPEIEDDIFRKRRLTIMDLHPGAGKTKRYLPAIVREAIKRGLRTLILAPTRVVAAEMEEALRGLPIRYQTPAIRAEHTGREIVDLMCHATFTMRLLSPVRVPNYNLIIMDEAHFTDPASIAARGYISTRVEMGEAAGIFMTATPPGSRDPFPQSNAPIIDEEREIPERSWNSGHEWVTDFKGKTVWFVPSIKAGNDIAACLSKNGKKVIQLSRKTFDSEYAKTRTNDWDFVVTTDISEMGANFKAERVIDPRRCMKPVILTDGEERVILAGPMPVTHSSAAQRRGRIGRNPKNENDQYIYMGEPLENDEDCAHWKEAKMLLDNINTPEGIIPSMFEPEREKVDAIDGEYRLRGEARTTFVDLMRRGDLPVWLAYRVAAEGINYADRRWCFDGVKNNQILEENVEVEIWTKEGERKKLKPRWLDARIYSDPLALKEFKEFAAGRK

Structure (SMILES)	IC50 (Genome polyprotein [1]) [µM]	IC50 (Genome polyprotein [2]) [µM]
NCCCc1cccc(NC(=O)c2cc(Cl)cc(NC(=O)OCc3ccccc3)c2)n1	62.1	> 100
NCc1cccc(NC(=O)[C@@H](NC(=O)OCc2ccccc2)C2CCN(S(=O)(=O)C3CCCC3)CC2)c1	> 99.5	> 100
NCc1cccc(NC(=O)c2cc(NC(=O)OCc3ccccc3)ccc2C(F)(F)F)c1	> 99.5	> 100
NCc1cccc(NC(=O)c2cc(Cl)cc(-n3cccc3)c2)c1	> 99.5	> 100
N#Cc1csc(CN2CCC([C@H](NC(=O)OCc3ccccc3)C(=O)Nc3cccc(CN)c3)CC2)c1	> 99.5	> 100
NCc1cccc(NC(=O)[C@@H](NC(=O)OCc2ccccc2)C2CCN(C(=O)C3CC3)CC2)c1	> 99.5	> 100
NCc1cccc(NC(=O)[C@H](NC(=O)OCc2ccccc2)C2CCN(C(=O)[C@H]3C[C@H](O)C3)CC2)c1	> 99.5	> 100
NCc1cccc(NC(=O)[C@@H](NC(=O)OCc2ccccc2)C2CCN(Cc3cn[nH]c3)CC2)c1	> 99.5	> 100
N#CC1(S(=O)(=O)N2CCC([C@H](NC(=O)OCc3ccccc3)C(=O)Nc3cccc(CN)c3)CC2)CCC1	81.8	> 100
NCc1cccc(NC(=O)c2cc(Cl)cc(OC3CC3)c2)c1	> 99.5	> 100
NCc1cccc(NC(=O)c2cc(Cl)cc(N3CCCC3)c2)c1	> 99.5	> 100
C[C@@H]1CNC[C@H]1c1ccc(NC(=O)c2ccc3c(c2)SCCN3)cc1	> 99.5	> 100
O=C(Nc1cc(Cl)cc(C(=O)NCC2(CO)CCNCC2)c1)OCc1ccccc1	> 99.5	> 100
Cc1nnsc1CN1CCC([C@@H](NC(=O)OCc2ccccc2)C(=O)Nc2cccc(CN)c2)CC1	> 99.5	> 100
N#Cc1ccc(N2CCN(Cc3c[nH]c4ccccc34)CC2)cc1	> 99.5	> 100
NCc1cccc(NC(=O)[C@@H](NC(=O)OCc2ccccc2)C2CCN(Cc3cccnc3)CC2)c1	> 99.5	> 100
N#Cc1cc(Cl)cc(C(=O)Nc2cccc(CN)c2)c1	> 99.5	> 100
c1ccc(-c2[nH]c3ccccc3c2CN2CCC(c3cscn3)CC2)cc1	> 99.5	> 100
O=C(Nc1cc(Cl)cc(C(=O)Nc2ccc3c(c2)[C@H]2CC[C@H]3N2)c1)OCc1ccccc1	76.4	> 100
CSc1cc(F)c(C(=O)Nc2cccc(CN)c2)cc1NC(=O)OCc1ccccc1	84.2	> 100
NCc1cccc(NC(=O)[C@H](NC(=O)OCc2ccccc2)C2CCN(C3CCCC3)CC2)c1	> 99.5	> 100
NCc1cccc(NC(=O)c2cc(Cl)ccc2-n2cncn2)c1	> 99.5	> 100
Cn1nnc(S(=O)(=O)N2CCC([C@H](NC(=O)OCc3ccccc3)C(=O)Nc3cccc(CN)c3)CC2)n1	> 99.5	> 100
NCc1cccc(NC(=O)[C@H](NC(=O)OCc2ccccc2)C2CCN(S(=O)(=O)c3ccccc3)CC2)c1	> 99.5	> 100
NCCc1nsc(NC(=O)c2cc(Cl)cc(NC(=O)OCc3ccccc3)c2)n1	> 99.5	> 100
NS(=O)(=O)c1ccccc1N1CCN(Cc2c[nH]c3ccccc23)CC1	> 99.5	> 100

Structure (SMILES)	IC50 (Genome polyprotein [1]) [µM]	IC50 (Genome polyprotein [2]) [µM]
Cc1nnc(CN2CCC([C@H](NC(=O)OCc3ccccc3)C(=O)Nc3cccc(CN)c3)CC2)s1	> 99.5	> 100
NCc1cccc(NC(=O)[C@@H](NC(=O)OCc2ccccc2)c2ccc(OCc3ccccn3)cc2)c1	> 99.5	> 100
COCc1cc(Cl)cc(C(=O)Nc2cccc(CN)c2)c1	> 99.5	> 100
CCOC(=O)Nc1cc(Cl)cc(C(=O)Nc2cccc(CN)c2)c1	> 99.5	> 100
Cn1nc(CCN)nc1NC(=O)c1cc(Cl)cc(NC(=O)OCc2ccccc2)c1	> 99.5	> 100
NCc1cccc(NC(=O)[C@@H](NC(=O)OCc2ccccc2)c2ccc(OCc3nc4c(s3)COCC4)cc2)c1	> 99.5	> 100
Cc1cc(CN)cc(NC(=O)c2cc(Cl)cc(NC(=O)OCc3ccccc3)c2)c1	42.2	> 100
NC[C@@H](NC(=O)c1cc(Cl)cc(NC(=O)OCc2ccccc2)c1)c1ccccc1	> 99.5	> 100
C[C@H](N)c1cccc(NC(=O)c2cc(Cl)cc(NC(=O)OCc3ccccc3)c2)c1	68.6	> 100
c1ccc(N2CCN(Cc3c[nH]c4ccccc34)CC2)nc1	> 99.5	> 100
c1ccc(COc2ccc3c(CN4CCC(c5cscn5)CC4)c[nH]c3c2)cc1	> 99.5	> 100
NCc1cccc(NC(=O)[C@@H](NC(=O)OCc2ccccc2)C2CCN(S(=O)(=O)Cc3cscn3)CC2)c1	> 99.5	> 100
NCc1cccc(NC(=O)[C@H](NC(=O)OCc2ccccc2)c2ccc(OCc3ccncn3)cc2)c1	99.2	> 100
Cn1ccnc1COc1cccc([C@H](NC(=O)OCc2ccccc2)C(=O)Nc2cccc(CN)c2)c1	> 99.5	> 100
Cc1nnc(S(=O)(=O)N2CCC([C@H](NC(=O)OCc3ccccc3)C(=O)Nc3cccc(CN)c3)CC2)s1	> 99.5	> 100
NCc1cccc(NC(=O)[C@@H](NC(=O)OCc2ccccc2)c2ccc(OC[C@H]3CCS(=O)(=O)C3)cc2)c1	> 99.5	> 100
NCc1cccc(NC(=O)c2cc(Cl)cc(Cl)c2O)c1	> 99.5	> 100
NCc1cccc(NC(=O)c2cc(Cl)cc(N3CCCC3=O)c2)c1	> 99.5	> 100
CN1CCC(COc2cccc([C@H](NC(=O)OCc3ccccc3)C(=O)Nc3cccc(CN)c3)c2)CC1	> 99.5	> 100
NCc1cccc(NC(=O)c2cc(Cl)cc3c2OCCNC3)c1	> 99.5	> 100
Oc1cc(N2CCN(Cc3c[nH]c4ccccc34)CC2)ccn1	> 99.5	> 100
NCc1cccc(NC(=O)[C@@H](NC(=O)OCc2ccccc2)C2CCN(S(=O)(=O)[C@H]3CCOC3)CC2)c1	> 99.5	> 100
CC(=O)Nc1cc(Cl)cc(C(=O)Nc2cccc(CN)c2)c1	> 99.5	> 100
O=C(Nc1cc(Cl)cc(C(=O)Nc2cccc3c2CNC3)c1)OCc1ccccc1	> 99.5	> 100
CN(C)Cc1csc(NC(=O)c2cc(Cl)cc(NC(=O)OCc3ccccc3)c2)n1	> 99.5	> 100
NCc1cccc(NC(=O)[C@@H](NC(=O)OCc2ccccc2)C2CCN(S(=O)(=O)Cc3ncon3)CC2)c1	> 99.5	> 100

Structure (SMILES)	IC50 (Genome polyprotein [1]) [µM]	IC50 (Genome polyprotein [2]) [µM]
NCc1cccc(NC(=O)c2nc(=O)cc(NC(=O)OCc3ccccc3)[nH]2)c1	> 99.5	> 100
CNCc1cccc(NC(=O)c2cc(Cl)cc(NC(=O)OCc3ccccc3)c2)c1	80.5	> 100
NCc1cccc(NC(=O)[C@@H](NC(=O)OCc2ccccc2)C2CCN(C3CCOCC3)CC2)c1	> 99.5	> 100
NCc1cccc(NC(=O)[C@H](NC(=O)OCc2ccccc2)c2ccc(OCCc3cscn3)cc2)c1	> 99.5	> 100
Clc1ccc2c(CN3CCC(c4c[nH]c5ncccc45)CC3)c[nH]c2c1	> 99.5	> 100
COCC(=O)N1CCC([C@@H](NC(=O)OCc2ccccc2)C(=O)Nc2cccc(CN)c2)CC1	> 99.5	> 100
CN(C)Cc1cc(NC(=O)[C@H](NC(=O)OCc2ccccc2)c2ccc(OCc3ccccc3)cc2)sn1	> 99.5	> 100
NCc1ccccc1Oc1ccc(S(=O)(=O)Nc2ccc(Cl)cc2C(=O)NCC(F)(F)F)cc1	> 99.5	> 100
CC(C)S(=O)(=O)N1CCC([C@@H](NC(=O)OCc2ccccc2)C(=O)Nc2cccc(CN)c2)CC1	> 99.5	> 100
Cn1ccnc1C(=O)N1CCC([C@H](NC(=O)OCc2ccccc2)C(=O)Nc2cccc(CN)c2)CC1	> 99.5	> 100
CS(=O)(=O)N1CCC([C@@H](NC(=O)OCc2ccccc2)C(=O)Nc2cccc(CN)c2)CC1	> 99.5	> 100
CN(C)CCOc1ccc(Cl)cc1C(=O)Nc1cccc(CN)c1	> 99.5	> 100
O=C(Nc1cc(Cl)cc(C(=O)Nc2ccc3c(c2)CNCCO3)c1)OCc1ccccc1	> 99.5	> 100
NCc1cccc(NC(=O)[C@@H](NC(=O)OCc2ccccc2)c2ccc(OCCN3CCCCC3)cc2)c1	> 99.5	> 100
CCCCS(=O)(=O)N1CCC([C@H](NC(=O)OCc2ccccc2)C(=O)Nc2cccc(CN)c2)CC1	> 99.5	99
NCc1cccc(NC(=O)[C@@H](NC(=O)OCc2ccccc2)c2ccc(OCc3cnccn3)cc2)c1	> 99.5	> 100
CSc1cc(Cl)cc(C(=O)Nc2cccc(CN)c2)c1	> 99.5	> 100
CN1C(=O)C[C@H](C(=O)Nc2cccc(CN)c2)[C@H]1c1ccc(Cl)c(Cl)c1	> 99.5	> 100
NCc1cc(F)cc(NC(=O)c2cc(Cl)cc(NC(=O)OCc3ccccc3)c2)c1	> 99.5	> 100
NCc1cccc(NC(=O)c2cc(Cl)ccc2OCC(F)(F)F)c1	> 99.5	> 100
NCc1cccc(NC(=O)[C@H](NC(=O)OCc2ccccc2)C2CCN(CCc3ccccc3)CC2)c1	> 99.5	> 100
Cn1ncc(CN2CCC([C@H](NC(=O)OCc3ccccc3)C(=O)Nc3cccc(CN)c3)CC2)n1	> 99.5	> 100
NCc1cccc(NC(=O)[C@H](NC(=O)OCc2ccccc2)c2cccc(OCCn3cccn3)c2)c1	> 99.5	> 100
NS(=O)(=O)c1cccc(N2CCN(Cc3c[nH]c4ccccc34)CC2)c1	> 99.5	> 100
Cc1csc(N2CCN(Cc3c[nH]c4ccccc34)CC2)n1	> 99.5	> 100
C[C@@H](N)c1cccc(NC(=O)c2cc(Cl)cc(NC(=O)OCc3ccccc3)c2)c1	81	> 100
